Experiment in all cases: growth of human tumour cells (NCI), 48 h
For assay [1], the system named is HT29 colon.
The subject of assay [2] is HS 578T breast.
In assay [3] the test system is SK-MEL-5 melanoma.
In assay [4] the test system is UACC-257 melanoma.
Assay [5] concerns ACHN renal.
For assay [6], the system named is OVCAR-3 ovarian.
In assay [7] the test system is UACC-62 melanoma.
For assay [8], the system named is SW-620 colon.
In assay [9] the test system is RPMI-8226 leukemia.
Assay [10] concerns A498 renal.

Structures are written as SMILES.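 How tested: cells in 96-well plates exposed to compound for 48 hours at five concentrations. Abbreviation: GI50, concentration required for 50% inhibition of growth. Definition used: TGI = concentration required for complete inhibition of growth.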 Where only a bound is given, the exact number is not on record here.

As for `O=C(/C=C/c1ccco1)Nc1ncc(Cc2cccc(C(F)(F)F)c2)s1`, the GI50 in assay [1] is 0.0388 µM; in assay [2], 0.0466 µM; in assay [3] it was 0.0512 µM; in assay [4] it was 3.63 µM; in assay [5], 0.0647 µM; in assay [6], 0.0386 µM. The GI50 is 0.0545 µM in [7], 0.0422 µM in assay [8], 0.291 µM in assay [9] and 0.0267 µM in [10]. For the same compound, the TGI in [1] was > 33 µM; in assay [2], 3.89 µM; in assay [3], 1.81 µM; in assay [4], > 100 µM; in [5] it was 3.66 µM; in assay [6], 0.45 µM. For the same compound, the TGI in assay [7] was 24.6 µM; in assay [8], > 100 µM; in assay [9], 10.9 µM; in assay [10], 1.73 µM.
On to `O=C(NCCCl)NCCN1c2nc3ccccc3cc2Sc2cc3ccccc3nc21`, for which the GI50 in [1] was 1.11 µM; in assay [2], 0.962 µM; in assay [3], 0.168 µM; in assay [4], 1.37 µM; in assay [5], 3.02 µM; in [6], 1.45 µM. The GI50 is 1.62 µM in [7], 1.16 µM in assay [8], 0.245 µM in assay [9] and 4.58 µM in assay [10]. The TGI in [1] is 8.89 µM; in assay [2] it was 9.57 µM; in assay [3], 1.25 µM; in [4] it was 6.55 µM; in assay [5], > 45.9 µM; in assay [6] it was 16.1 µM. Also, the TGI amounted to 18.2 µM in assay [7], 2.95 µM in assay [8], 1.64 µM in assay [9] and 24.7 µM in [10].
As for `NC(CP(=O)(O)O)C(=O)O` (stereo not given), the TGI in assay [1], in assay [2], in [3], in assay [4], in assay [5] and in assay [6] was > 100 µM each time. Moreover, the TGI in [7], in assay [8], in assay [9] and in assay [10] was > 100 µM in each case.
On to `C[C@]12CCCN1CC1=NNC(=O)c3cc(F)cc4[nH]c2c1c34`, for which the GI50 in assay [1] is 19.2 µM; in assay [2], 11.8 µM; in [3], 20.7 µM; in [4] it was 25.1 µM; in [5], 21.1 µM; in assay [6], 17.8 µM. The GI50 in assay [7] was 12.7 µM; in assay [8], 16.7 µM; in assay [9], 19.1 µM; in assay [10], 13.9 µM. For the same compound, the TGI was > 100 µM in [1]; 62.5 µM in assay [2]; 53.4 µM in assay [3]; 73.6 µM in assay [4]; > 100 µM in [5]; > 100 µM in assay [6]. Also, the TGI is 28.3 µM in assay [7], > 100 µM in [8], 52.3 µM in assay [9] and 34.3 µM in assay [10].

Values taken from PubChem BioAssay (NCI).
